The results in this text go back to patent US20110306671A1, “AMIDE DERIVATIVES OF ETHACRYNIC ACID” (The Regents of the The University of California, priority 2008, published 2011).

Experiment [1] has as its system HT29. Nature of the experiment: Cytotoxicity of EA in tumor cell line HT29. The experiment is classed as cell-based. The note with it: Homo sapiens, HT-29, mean of at least two experiments.
In experiment [2] the test system is B16. Nature of the experiment: Cytotoxicity of EA in tumor cell line B16. Conditions: Mus musculus, mean of at least two experiments. It is filed as cell-based.
The test system of experiment [3] is Wnt/β-catenin signaling. As to the kind of experiment: TOPflash reporter assay in SW480 cells. The note with it: 24 hours. It is filed as cell-based, human. How it is done: FIG. 7. EA destabilizes the LEF-1/β-catenin complex. (A) SW480 cells were treated with increasing amounts of EA for 16 hours. Cells were lysed, and IP was completed with anti-β-catenin monoclonal antibody. The immune complexes were analyzed by immunoblotting with anti-LEF-1, anti-α-catenin and anti-β-catenin antibodies. (B) EA inhibits Wnt/β-catenin signaling in SW480 cells. SW480 cells were transfected with TOPflash reporter and control plasmid pCMXβgal. After transfection for 24 hours, cells were treated with increasing concentrations of EA for another 24 hours as indicated. Cells were then harvested and luciferase values were determined. The results are expressed as relative luciferase activity (%) normalized to a β-galactosidase control. For screening of the drug library, HEK293 cells were grown for at least 24 hours in 10 cm plates prior to transfection. At 50% confluence, cells were transfected with 5 μg of TOPflash reporter, 1 μg expression vector for Dvl, 1 μg of control plasmid pCMXβgal and carrier DNA pcDNA3 plasmid for a total of 10 μg/plate. After transfection for 24 hours, cells were harvested and dispersed in 96-well microtiter plates. […] Then luciferase values were determined. In the Results section, data are expressed as fold stimulation of luciferase activity compared to the basal level. […]

Experiment [4] concerns different tumor cell lines. Nature of the experiment: Cytotoxicity of EA in different tumor cell lines (summary). It is filed as cell-based. Conditions: read-out: mean 50% inhibitory concentration (IC50) of EA in these cell lines; range over the tumor cell lines of Table 3.
Experiment [5] concerns NFATc-mediated transcription. Nature of the experiment: NFAT reporter assay in HEK293 cells. The experiment is classed as cell-based, human. Conditions: 50 μM EA, 24 hours. How it is done:
FIG. 1. Inhibition of Wnt/β-catenin signaling by EA. […] Cells were lysed and luciferase activity was quantified. Total protein levels were determined by Bradford Assay and serve as a control for total cell number. (B) HEK293 cells were co-transfected with TOPflash reporter construct, along with expression plasmids for Wnt1, Wnt3, LRP6, Dvl and β-catenin as indicated. […] (C) HEK293 cells were transfected with FOPflash reporter with or without an expression plasmid for β-catenin. […] (D) HEK293 cells were transfected with NFAT reporter and expression plasmid for NFATc. […] The results are expressed as fold induction of luciferase activity compared to the basal level, and are the means of three experiments±SEM. For screening of the drug library, HEK293 cells were grown for at least 24 hours in 10 cm plates prior to transfection. At 50% confluence, cells were transfected with 5 μg of TOPflash reporter, 1 μg expression vector for Dvl, 1 μg of control plasmid pCMXβgal and carrier DNA pcDNA3 plasmid for a total of 10 μg/plate. After transfection for 24 hours, cells were harvested and dispersed in 96-well microtiter plates. […] Then luciferase values were determined. In the Results section, data are expressed as fold stimulation of luciferase activity compared to the basal level. […]
A general note: A reporter such as luciferase makes a cellular process visible.

The subject of experiment [6] is A549. Nature of the experiment: Cytotoxicity of EA in tumor cell line A549. The note with it: Homo sapiens, mean of at least two experiments. It is filed as cell-based.
Experiment [7] concerns Primary CLL cells. As to the kind of experiment: Cell apoptosis assay (DiOC6/PI flow cytometry) in primary CLL cells. The experiment is classed as cell-based, human. Conditions: 3 μM EA; preliminary, data not shown. For orientation: Flow cytometry measures light scatter and fluorescence of single cells or particles in a stream.
The subject of experiment [8] is CLL cells. As to the kind of experiment: Levels of O2− or H2O2 in CLL cells treated with EA. The experiment is classed as cell-based, human. Conditions: results not shown.
Experiment [9] relates to LEF-1, cyclin D1 and fibronectin mRNA. Nature of the experiment: Real-time PCR of Wnt target genes in CLL cells. The note with it: CLL cells from three patients, 16 hours. The experiment is classed as cell-based, human.

As for `C=C(CC)C(=O)c1ccc(OCC(=O)O)c(Cl)c1Cl` [Compound 1, Ethacrynic acid], the IC50 in [1] was 56 µM; in [2], 201 µM; in experiment [4], 40 to 200 µM; in experiment [6], 178 µM. Besides, in experiment [3], the “concentrations with dose-dependent inhibition of TOPflash activity” value is at least 60 µM. In addition, the “effect on NFATc-mediated transcription from a NFAT reporter” value in experiment [5] is “did not block”. Moreover, the “effect on fludarabine-mediated apoptosis of CLL cells” value in experiment [7] was “enhanced”. Besides, the “levels of O2− or H2O2 in CLL cells” value in experiment [8] was “no significant increase”. Further, the “LEF-1, cyclin D1 and fibronectin mRNA expression” value in experiment [9] is “decreased”.
